Source: US8796321B2, “Compounds, compositions and methods comprising oxadiazole derivatives” (PATH Drug Solutions, priority 2008, dated 2014)

System: cholera toxin (CTX) induced net fluid secretion in intestinal loops
Set-up: species or system mice (CD1 strain)
Settings: mouse, in vivo

SMILES | closed loop % inhibition @ 10 μg [%] | closed loop % inhibition @ 100 μg [%]
CC(C)(C)C(=O)CN(Cc1cccc(C(F)(F)F)c1)C(=O)c1nc(-c2cc(Br)c(O)c(Br)c2)no1 [compound 1, 3-(3,5-dibromo-4-hydroxyphenyl)-N-(3,3-dimethyl-2-oxobutyl)-N-(3-(trifluoromethyl)benzyl)-1,2,4-oxadiazole-5-carboxamide] | 69.4 | 87.1
O=C(NCc1ccc(Oc2ccccc2)cc1)c1nc(-c2cc(Br)c(O)c(Br)c2)no1 [compound 13, 3-(3,5-dibromo-4-hydroxyphenyl)-N-(4-phenoxybenzyl)-1,2,4-oxadiazole-5-carboxamide] | 88.6 | 94.7
O=C(NCc1cccc(OC(F)(F)F)c1)c1noc(-c2cc(Br)c(O)c(Br)c2)n1 [compound 65, 5-(3,5-dibromo-4-hydroxyphenyl)-N-(3-(trifluoromethoxy)benzyl)-1,2,4-oxadiazole-3-carboxamide] | – | 94.6
O=C(NCc1cc(F)cc(F)c1)c1noc(-c2cc(Cl)c(O)c(Cl)c2)n1 [compound 112, 5-(3,5-dichloro-4-hydroxyphenyl)-N-(3,5-difluorobenzyl)-1,2,4-oxadiazole-3-carboxamide] | – | 51
O=C(NCc1cccc(OC(F)(F)F)c1)c1noc(-c2cc(Cl)c(O)c(Cl)c2O)n1 [compound 120, 5-(3,5-dichloro-2,4-dihydroxyphenyl)-N-(3-(trifluoromethoxy)benzyl)-1,2,4-oxadiazole-3-carboxamide] | – | 62.3
